Data on one molecule can be found in US8952017B2 (Emisphere Technologies, Inc., priority 2004, dated 2015).

The nature of series [1]: Solid oral delivery of acyclovir in rats (plasma acyclovir by LC-MS-MS). It is filed as in vivo, Male Sprague Dawley rats. Particulars: oral tablet, acyclovir 25 mg/kg, no delivery agent. An excerpt:
An oral dosing tube was used.
Results from the animals in each group were averaged for each time point.

The conditions of series [2]: orally administered; cited from earlier work.

On to `Nc1nc2c(ncn2COCCO)c(=O)[nH]1` [Acyclovir, 9-(2-hydroxyethoxymethyl)guanine], for which the “Mean plasma peak of Acyclovir (ng/ml) ± SD” value in series [1] is 95.11 ± 73.75 ng/mL. For the same molecule, the bioavailability in series [2] is reported as 15-30%.
